Columns and labels:
Assay type in all cases: in vivo, human
subjects with GBS [1] = assay: Motor strength on 0-5 ordinal scale, Phase I double-blind placebo controlled crossover study
Text: This was a Phase I double-blind, placebo controlled, crossover, dose escalating study in subjects with GBS similar to those proposed for MS and SCI. An initial trial of ten patients will be randomized to […] of the two treatment sequences (A or B) as shown below. The study population consists of subjects with GBS injury whose neurological status has been stable for at least eighteen months. Ten subjects will be enrolled. Motor strength was rated on the traditional 0-5 ordinal scale: 0—absent motor strength 1—trace motor strength 2—can move the specified joint but only with gravity eliminated 3—can move the joint against gravity but not against any opposing force 4—can move the joint against opposing force but the strength is not normal for the person or symmetrical 5—normal motor strength This scale was employed to measure the following motor strength for each of these joint motions on both the right and the left sides: hip flexion, hip adduction, hip abduction, knee flexion, knee extension, ankle dorsi-flexion, ankle plantar flexion, shoulder abduction, elbow extension, elbow flexion, wrist flexion, and wrist extension. [table]

subjects with GBS [2] = assay: Hand grip strength on hand dynamometer, same study; details: hand-held dynamometer; p=0.0243 paired Student's t-test; repeated measures ANOVA p=0.0715; FIG. 3
Description: This was a Phase I double-blind, placebo controlled, crossover, dose escalating study in subjects with GBS similar to those proposed for MS and SCI. An initial trial of ten patients will be randomized to […] of the two treatment sequences (A or B) as shown below. The study population consists of subjects with GBS injury whose neurological status has been stable for at least eighteen months. Ten subjects will be enrolled. Hand grip strength was measured on a hand dynamometer that had been calibrated. Each patient was given three trials separated by thirty second rest periods and the strongest of the three measurements was recorded for each hand. [table]

subjects with GBS [3] = assay: Serum laboratories drawn at start and every week of the study
Text: This was a Phase I double-blind, placebo controlled, crossover, dose escalating study in subjects with GBS similar to those proposed for MS and SCI. An initial trial of ten patients will be randomized to […] of the two treatment sequences (A or B) as shown below.
The study population consists of subjects with GBS injury whose neurological status has been stable for at least eighteen months. Ten subjects will be enrolled.
In addition, serum laboratories were drawn at the beginning of the study and every week of the study. The serum laboratories included glucose, blood urea nitrogen, creatinine, uric acid, calcium, total protein, albumin, phosphate, total bilirubin, cholesterol, LDH, SGOT/AST, alkaline phosphatase, hematocrit, hemoglobin, red blood cell count, platelet count, and white blood cell count with differential.

[4] = serum laboratory, before change
[5] = serum laboratory, statistically significant, not clinically significant

Nc1ccncc1 [4-aminopyridine]
Lower extremity strength, average motor score on the active medication (subjects with GBS [1]; 0-5 scale, 10-20 mg bid escalating, p<0.0001, Friedeman's, FIG. 1): 3.7
Upper extremity strength, average motor score after increase (subjects with GBS [1]; 0-5 scale, 10-20 mg bid escalating, p=0.0065, Friedeman's, FIG. 2): 3.7
Upper extremity strength, average motor score, starting value (subjects with GBS [1]; 0-5 scale, value before increase, FIG. 2): 3.2
Lower extremity strength, average motor score, starting value (subjects with GBS [1]; 0-5 scale, value before increase, seven GBS patients, FIG. 1): 3.2
Duration of neural biological effects after stopping the drug (subjects with GBS [1]; patients on active agent first, motor and grip strength continued to drop for up to two additional weeks after one week washout): more than two weeks
Grip strength, start of study compared to after four weeks of treatment (subjects with GBS [2]): increased significantly
Hematocrit, starting value (subjects with GBS [3]; before change): 42.7
All other laboratories, change while on the active agent (subjects with GBS [3]; glucose, BUN, creatinine, calcium, proteins, bilirubin, cholesterol, LDH, alkaline phosphatase, blood counts etc.): no significant change
SGOT, starting value (subjects with GBS [3]; [4]): 25.1
Uric acid, starting value (subjects with GBS [3]; [4]): 6.4
SGOT, after change on the active agent (subjects with GBS [3]; [5]): 27.9
Uric acid, after change on the active agent (subjects with GBS [3]; [5]): 6.5
Hematocrit, after change on the active agent (subjects with GBS [3]; statistically significant, not clinically significant): 41.6
